# Results as given in patent US10076519B2 (CYTOKINETICS, INC., priority 2010, dated 2018).
# System: rabbit skeletal myofibrils (fast skeletal myofibrils)
# Assay: Activation of fast skeletal myofibrils (PUMA assay, PK/LDH-coupled ATPase at pCa25)
# Format: biochemical
# Conditions: AC1.4 determined according to the procedure of Example 39; reported as class symbols
# Outline: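 ATPase activity of Triton-washed rabbit skeletal myofibrils, roughly 90% fast fibres, tracked by NADH loss at 340 nm through a PK/LDH-coupled ADP-regenerating system. Calcium set to 25% of maximal activity (pCa25), in PIPES 12 mM pH 6.8 with 2 mM MgCl2 and 1 mM DTT; AC1.4 reported.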
row,Structure (SMILES),Mean AC1.4
1,CC(C)(CNc1ccc(-c2ccc3[nH]cnc3c2)nn1)c1ccc(F)cc1 [(6-benzimidazol-5-ylpyridazin-3-yl)[2-(4-fluorophenyl)-2-methylpropyl]amine],A (A=<1 uM)
2,Fc1cccnc1C1(CNc2ccc(-c3ccc4[nH]cnc4c3)nn2)CCC1 [(6-benzimidazol-5-ylpyridazin-3-yl){[(3-fluoro(2-pyridyl))cyclobutyl]methyl}amine],A (A=<1 uM)
3,Fc1cccnc1C1(CNc2ccc(-c3ccc4n[nH]nc4c3)nn2)CCC1 [(6-benzotriazol-6-ylpyridazin-3-yl){[(3-fluoro(2-pyridyl))cyclobutyl]methyl}amine],A (A=<1 uM)
4,CCc1ccc(NCC(C)(C)c2ccc(F)cc2)nn1 [(6-ethylpyridazin-3-yl)[2-(4-fluorophenyl)-2-methylpropyl]amine],C (C=10-20 uM)
5,CC(C)(CNc1ccc(-c2ccc3[nH]nc(NCCN)c3c2)nn1)c1ccc(F)cc1 [(6-{3-[(2-aminoethyl)amino](1H-indazol-5-yl)}pyridazin-3-yl)[2-(4-fluorophenyl)-2-methylpropyl]amine],A (A=<1 uM)
6,NCCNc1n[nH]c2ccc(-c3ccc(NCC4(c5ncccc5F)CCC4)nn3)cc12 [(6-{3-[(2-aminoethyl)amino](1H-indazol-5-yl)}pyridazin-3-yl){[(3-fluoro(2-pyridyl))cyclobutyl]methyl}amine],A (A=<1 uM)
7,CC(C)(CNc1ccc(C(=O)NCc2cc[nH]n2)nn1)c1ccc(F)cc1 [(6-{[2-(4-fluorophenyl)-2-methylpropyl]amino}pyridazin-3-yl)-N-(pyrazol-3-ylmethyl)carboxamide],C (C=10-20 uM)
8,CC(C)(CNc1ccc(C(=O)NCC2CCC(=O)N2)nn1)c1ccc(F)cc1 (stereo not shown) [(6-{[2-(4-fluorophenyl)-2-methylpropyl]amino}pyridazin-3-yl)-N-[(5-oxopyrrolidin-2-yl)methyl]carboxamide],C (C=10-20 uM)
9,CC(C)(CNc1ccc(C(=O)Nc2ccn[nH]2)nn1)c1ccc(F)cc1 [(6-{[2-(4-fluorophenyl)-2-methylpropyl]amino}pyridazin-3-yl)-N-pyrazol-5-ylcarboxamide],D (D=>20 uM)
10,CC(C)(C)OC(=O)NCCNc1n[nH]c2ccc(-c3ccc(NCC(C)(C)c4ccc(F)cc4)nn3)cc12 [(tert-butoxy)-N-(2-{[5-(6-{[2-(4-fluorophenyl)-2-methylpropyl]amino}pyridazin-3-yl)(1H-indazol-3-yl)]amino}ethyl)carboxamide],A (A=<1 uM)
11,CC(C)(C)OC(=O)N(CC(C)(C)c1ncccc1F)c1ccc(-c2ccc3[nH]c(O)nc3c2)nn1 [(tert-butoxy)-N-[2-(3-fluoro(2-pyridyl))-2-methylpropyl]-N-[6-(2-hydroxybenzimidazol-5-yl)pyridazin-3-yl]carboxamide],D (D=>20 uM)

# Same assay, conditions: median AC1.4 class, procedure of Example 39
row,Structure (SMILES),Mean AC1.4
1,Fc1ccc(C2(Nc3ccc(-c4ccc5[nH]cnc5c4)nn3)CCC2)cc1 [(6-benzimidazol-5-ylpyridazin-3-yl)[(4-fluorophenyl)cyclobutyl]amine],A (A=<1 uM)
2,Fc1cccnc1C1(Nc2ccc(-c3ccc4nc[nH]c4c3)nn2)CCC1 [(6-benzimidazol-6-ylpyridazin-3-yl)[(3-fluoro(2-pyridyl))cyclobutyl]amine],B (B=1-10 uM)
3,Fc1cccnc1C1(Nc2ccc(C3=CCCCC3)nn2)CCC1 [(6-cyclohex-1-enylpyridazin-3-yl)[(3-fluoro(2-pyridyl))cyclobutyl]amine],C (C=10-20 uM)
4,Fc1cccnc1C1(CNc2ccc(C3=CCCCC3)nn2)CCC1 [(6-cyclohex-1-enylpyridazin-3-yl){[(3-fluoro(2-pyridyl))cyclobutyl]methyl}amine],A (A=<1 uM)
5,Fc1cccnc1C1(Nc2ccc(C3CCCCC3)nn2)CCC1 [(6-cyclohexylpyridazin-3-yl)[(3-fluoro(2-pyridyl))cyclobutyl]amine],C (C=10-20 uM)
6,Fc1cccnc1C1(CNc2ccc(C3CCCCC3)nn2)CCC1 [(6-cyclohexylpyridazin-3-yl){[(3-fluoro(2-pyridyl))cyclobutyl]methyl}amine],B (B=1-10 uM)
7,CCc1ccc(NCC2(c3ncccc3F)CCC2)nn1 [(6-ethylpyridazin-3-yl){[(3-fluoro(2-pyridyl))cyclobutyl]meth-yl}amine],D (D=>20 uM)
8,"O=C(NCc1cnc(-c2ccc(NCC3(c4ncccc4F)CCC3)nn2)s1)[C@H]1CCCN1 [((2R)pyrrolidin-2-yl)-N-({2-[6-({[(3-fluoro(2-pyridyl))cyclobutyl]methyl}ami-no)pyridazin-3-yl](1,3-thiazol-5-yl)}methyl)carboxamide]",A (A=<1 uM)
9,"O=C(NCc1cnc(-c2ccc(NCC3(c4ncccc4F)CCC3)nn2)s1)[C@H]1C[C@@H](F)CN1 [((2R,4R)-4-fluoropyrrolidin-2-yl)-N-({2-[6-({[(3-fluoro(2-pyridyl))cyclobutyl]methyl}ami-no)pyridazin-3-yl](1,3-thiazol-5-yl)}methyl)carboxamide]",A (A=<1 uM)
10,"O=CN1CC(F)(F)C[C@H]1C(=O)NCc1cnc(-c2ccc(NCC3(c4ncccc4F)CCC3)nn2)s1 [((2S)-4,4-difluoro-1-formylpyrrolidin-2-yl)-N-({2-[6-({[(3-fluoro(2-pyridyl))cyclobutyl]methyl}ami-no)pyridazin-3-yl](1,3-thiazol-5-yl)}methyl)carboxamide]",A (A=<1 uM)
11,"O=C(NCc1cnc(-c2ccc(NCC3(c4ncccc4F)CCC3)nn2)s1)[C@@H]1CC(F)(F)CN1 [((2S)-4,4-difluoropyrrolidin-2-yl)-N-({2-[6-({[(3-fluoro(2-pyridyl))cyclobutyl]methyl}ami-no)pyridazin-3-yl](1,3-thiazol-5-yl)}methyl)carboxamide]",A (A=<1 uM)
12,"CC(=O)N1CCN[C@H](C(=O)NCc2cnc(-c3ccc(NCC4(c5ncccc5F)CCC4)nn3)s2)C1 [((2S)-4-acetylpiperazin-2-yl)-N-({2-[6-({[(3-fluoro(2-pyridyl))cyclobutyl]methyl}ami-no)pyridazin-3-yl](1,3-thiazol-5-yl)}methyl)carboxamide]",A (A=<1 uM)
13,"O=C1CC[C@@H](C(=O)NCc2cnc(-c3ccc(NCC4(c5ncccc5F)CCC4)nn3)s2)N1 [((2S)-5-oxopyrrolidin-2-yl)-N-({2-[6-({[(3-fluoro(2-pyridyl))cyclobutyl]methyl}ami-no)pyridazin-3-yl](1,3-thiazol-5-yl)}methyl)carboxamide]",A (A=<1 uM)
14,"O=C(NCc1cnc(-c2ccc(NCC3(c4ncccc4F)CCC3)nn2)s1)[C@@H]1CCCN1 [((2S)pyrrolidin-2-yl)-N-({2-[6-({[(3-fluoro(2-pyridyl))cyclobutyl]methyl}ami-no)pyridazin-3-yl](1,3-thiazol-5-yl)}methyl)carboxamide]",A (A=<1 uM)
15,"CC(C)(CNc1ccc(-c2ncc(CNC(=O)[C@@H]3CCCN3)s2)nn1)c1ncccc1F [((2S)pyrrolidin-2-yl)-N-{[2-(6-{[2-(3-fluoro(2-pyridyl))-2-methylpropyl]amino}pyridazin-3-yl)(1,3-thiazol-5-yl)]methyl}carboxamide]",B (B=1-10 uM)
16,"O=C(NCc1cnc(-c2ccc(NCC3(c4ncccc4F)CCC3)nn2)s1)[C@@H]1CS(=O)(=O)CCN1 [((3R)-1,1-dioxo(1,4-thiazaperhydroin-3-yl))-N-({2-[6-({[(3-fluoro(2-pyridyl))cyclobutyl]methyl}ami-no)pyridazin-3-yl](1,3-thiazol-5-yl)}methyl)carboxamide]",A (A=<1 uM)
17,"O=C(NCc1cnc(-c2ccc(NCC3(c4ncccc4F)CCC3)nn2)s1)[C@H]1CS(=O)(=O)CCN1 [((3S)-1,1-dioxo(1,4-thiazaperhydroin-3-yl))-N-({2-[6-({[(3-fluoro(2-pyridyl))cyclobutyl]methyl}ami-no)pyridazin-3-yl](1,3-thiazol-5-yl)}methyl)carboxamide]",A (A=<1 uM)
18,"O=C1CC[C@H](C(=O)NCc2cnc(-c3ccc(NCC4(c5ncccc5F)CCC4)nn3)s2)CN1 [((3S)-6-oxo(3-piperidyl))-N-({2-[6-({[(3-fluoro(2-pyridyl))cyclobutyl]methyl}ami-no)pyridazin-3-yl](1,3-thiazol-5-yl)}methyl)carboxamide]",A (A=<1 uM)
19,"O=C1NC[C@@H](C(=O)NCc2cnc(-c3ccc(NCC4(c5ncccc5F)CCC4)nn3)s2)N1 [((4S)-2-oxoimidazolidin-4-yl)-N-({2-[6-({[(3-fluoro(2-pyridyl))cyclobutyl]methyl}ami-no)pyridazin-3-yl](1,3-thiazol-5-yl)}methyl)carboxamide]",A (A=<1 uM)
20,"CC(OC(=O)NC(C)(C)C(=O)NCc1cnc(-c2ccc(NCC3(c4ncccc4F)CCC3)nn2)s1)OC(=O)C(C)C (stereo not shown) [(N-{1-[N-({2-[6-({[(3-fluoro(2-pyridyl))cyclobutyl]methyl}ami-no)pyridazin-3-yl](1,3-thiazol-5-yl)}methyl)carbamoyl]-isopropyl}carbamoyloxy)ethyl 2-methylpropanoate]",A (A=<1 uM)
21,"NC1(C(=O)NCc2cnc(-c3ccc(NCC4(c5ncccc5F)CCC4)nn3)s2)CC1 [(aminocyclopropyl)-N-({2-[6-({[(3-fluoro(2-pyridyl))cyclobutyl]methyl}ami-no)pyridazin-3-yl](1,3-thiazol-5-yl)}methyl)carboxamide]",A (A=<1 uM)
22,c1ccc(-c2ccc(NC3(c4ccccc4)CCC3)nn2)cc1 [(phenylcyclobutyl)(6-phenylpyridazin-3-yl)amine],B (B=1-10 uM)

# Same assay, conditions: median AC1.4 reported as class; procedure of Example 39
row,Structure (SMILES),Mean AC1.4
1,"O=C(NCc1cnc(-c2ccc(NCC3(c4ncccc4F)CCC3)nn2)s1)[C@@H]1CCN1 [((2S)azetidin-2-yl)-N-({2-[6-({[(3-fluoro(2-pyridyl))cyclobutyl]methyl}ami-no)pyridazin-3-yl](1,3-thiazol-5-yl)}methyl)carboxamide]",A (A=<1 uM)
